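Dose response: 5 concentrations. Exposure: 48 h. Format: 96-well plates. Endpoint: linear interpolation; highest concentration if not reached. GI50: concentration for 50% inhibition of growth. The concentration for full growth arrest is given as TGI.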 *1 amine or outer side, *2 acyl side, *3 side chain or, on linkers, in order; H or OH if unused. Where a SMILES comes first, the peptide text is derived from it. Bridges are numbered along the chain shown (N, C = ends). [ ]: non-standard residue; d: D form. The star is where a group is joined. Phe(3-F) = N[C@@H](Cc1cccc(F)c1)C(=O)O; Pro(4R-Me) = C[C@H]1CN[C@H](C(=O)O)C1; aThr = C[C@H](O)[C@H](N)C(=O)O; Pip = O=C(O)[C@@H]1CCCCN1; X8 = CCc1ccc(N*)c(F)c1; CO = O=C([*:1])[*:2]
Assays:
Experiment in all cases: inhibition of tumour cell growth, NCI panel, 48 h
HCT-116 colon = test system: HCT-116 colon
786-0 renal = test system: 786-0 renal
A549 NSCLC = test system: A549 NSCLC
HOP-92 NSCLC = test system: HOP-92 NSCLC
HT29 colon = test system: HT29 colon
OVCAR-5 ovarian = test system: OVCAR-5 ovarian
SK-MEL-5 melanoma = test system: SK-MEL-5 melanoma
LOX IMVI melanoma = test system: LOX IMVI melanoma
OVCAR-8 ovarian = test system: OVCAR-8 ovarian
PC-3 prostate = test system: PC-3 prostate
UACC-257 melanoma = test system: UACC-257 melanoma
MCF7 breast = test system: MCF7 breast
RXF 393 renal = test system: RXF 393 renal
SNB-75 CNS = test system: SNB-75 CNS
HS 578T breast = test system: HS 578T breast
K-562 leukemia = test system: K-562 leukemia
SNB-19 CNS = test system: SNB-19 CNS
UACC-62 melanoma = test system: UACC-62 melanoma
ACHN renal = test system: ACHN renal
U251 CNS = test system: U251 CNS
SF-539 CNS = test system: SF-539 CNS
TK-10 renal = test system: TK-10 renal
UO-31 renal = test system: UO-31 renal
HOP-62 NSCLC = test system: HOP-62 NSCLC
M14 melanoma = test system: M14 melanoma
SK-MEL-2 melanoma = test system: SK-MEL-2 melanoma
HCC-2998 colon = test system: HCC-2998 colon
A498 renal = test system: A498 renal
NCI-H23 lung = test system: NCI-H23 lung
NCI-H226 lung = test system: NCI-H226 lung
T-47D breast = test system: T-47D breast
SF-268 CNS = test system: SF-268 CNS
CCRF-CEM leukemia = test system: CCRF-CEM leukemia
IGROV1 ovarian = test system: IGROV1 ovarian
KM12 colon = test system: KM12 colon
MDA-MB-435 = test system: MDA-MB-435
COLO 205 colon = test system: COLO 205 colon
DU-145 prostate = test system: DU-145 prostate
SK-OV-3 ovarian = test system: SK-OV-3 ovarian
MDA-MB-231 breast = test system: MDA-MB-231 breast
SK-MEL-28 melanoma = test system: SK-MEL-28 melanoma
SN12C renal = test system: SN12C renal
SW-620 colon = test system: SW-620 colon
OVCAR-4 ovarian = test system: OVCAR-4 ovarian
SR leukemia = test system: SR leukemia
BT-549 breast = test system: BT-549 breast
NCI-H522 lung = test system: NCI-H522 lung
NCI/ADR-RES ovarian = test system: NCI/ADR-RES ovarian
MOLT-4 leukemia = test system: MOLT-4 leukemia
CAKI-1 renal = test system: CAKI-1 renal
SF-295 CNS = test system: SF-295 CNS
MALME-3M melanoma = test system: MALME-3M melanoma
RPMI-8226 leukemia = test system: RPMI-8226 leukemia
HL-60(TB) leukemia = test system: HL-60(TB) leukemia
EKVX NSCLC = test system: EKVX NSCLC
OVCAR-3 ovarian = test system: OVCAR-3 ovarian
NCI-H460 lung = test system: NCI-H460 lung
HCT-15 colon = test system: HCT-15 colon

## CCc1ccc(NC(=O)N[C@@H](Cc2cccc(F)c2)C(=O)N[C@@H]2C(=O)N3CCC[C@H]3C(=O)N3CCCC[C@H]3C(=O)N[C@@H](C)C(=O)N3C[C@H](C)C[C@H]3C(=O)O[C@H]2C)c(F)c1 ({X8-CO}-[Phe(3-F)][aThr]P[Pip]A[Pro(4R-Me)]; ester 2-C)
HCT-116 colon
  GI50: 60.4 nM
  TGI: 2620 nM
786-0 renal
  GI50: 421 nM
  TGI: 75200 nM
A549 NSCLC
  GI50: 509 nM
  TGI: > 79500 nM
HOP-92 NSCLC
  GI50: 380 nM
  TGI: 6750 nM
HT29 colon
  GI50: 352 nM
  TGI: 2750 nM
OVCAR-5 ovarian
  GI50: 439 nM
  TGI: 4660 nM
SK-MEL-5 melanoma
  GI50: 354 nM
  TGI: 1570 nM
LOX IMVI melanoma
  GI50: 369 nM
  TGI: 16200 nM
OVCAR-8 ovarian
  GI50: 145 nM
  TGI: > 100000 nM
PC-3 prostate
  GI50: 191 nM
  TGI: > 100000 nM
UACC-257 melanoma
  GI50: 319 nM
  TGI: 5320 nM
MCF7 breast
  GI50: 272 nM
  TGI: 19300 nM
RXF 393 renal
  GI50: 948 nM
  TGI: 7960 nM
SNB-75 CNS
  GI50: 202 nM
  TGI: 3590 nM
HS 578T breast
  GI50: 264 nM
  TGI: 4580 nM
K-562 leukemia
  GI50: 52.6 nM
  TGI: > 56200 nM
SNB-19 CNS
  GI50: 218 nM
  TGI: > 82900 nM
UACC-62 melanoma
  GI50: 369 nM
  TGI: 10100 nM
ACHN renal
  GI50: 503 nM
  TGI: > 53700 nM
U251 CNS
  GI50: 318 nM
  TGI: 31800 nM
SF-539 CNS
  GI50: 541 nM
  TGI: 12600 nM
TK-10 renal
  GI50: 608 nM
  TGI: 29100 nM
UO-31 renal
  GI50: 377 nM
  TGI: 16500 nM
HOP-62 NSCLC
  GI50: 562 nM
  TGI: > 53200 nM
M14 melanoma
  GI50: 214 nM
  TGI: 2090 nM
SK-MEL-2 melanoma
  GI50: 243 nM
  TGI: 2020 nM
HCC-2998 colon
  GI50: 353 nM
  TGI: 2710 nM
A498 renal
  GI50: 616 nM
  TGI: 7340 nM
NCI-H23 lung
  GI50: 425 nM
  TGI: 20200 nM
NCI-H226 lung
  GI50: 351 nM
  TGI: 5230 nM
T-47D breast
  GI50: 337 nM
  TGI: 18900 nM
SF-268 CNS
  GI50: 463 nM
  TGI: 53400 nM
CCRF-CEM leukemia
  GI50: 252 nM
  TGI: 29900 nM
IGROV1 ovarian
  GI50: 614 nM
  TGI: > 47700 nM
KM12 colon
  GI50: 919 nM
  TGI: 18000 nM
MDA-MB-435
  GI50: 183 nM
  TGI: 6010 nM
COLO 205 colon
  GI50: 180 nM
  TGI: 511 nM
DU-145 prostate
  GI50: 285 nM
  TGI: > 100000 nM
SK-OV-3 ovarian
  GI50: 583 nM
MDA-MB-231 breast
  GI50: 283 nM
  TGI: 2270 nM
SK-MEL-28 melanoma
  GI50: 589 nM
  TGI: 13100 nM
SN12C renal
  GI50: 294 nM
  TGI: > 57300 nM
SW-620 colon
  GI50: 486 nM
  TGI: > 60700 nM
OVCAR-4 ovarian
  GI50: 163 nM
  TGI: > 19900 nM
SR leukemia
  GI50: 380 nM
  TGI: 10200 nM
BT-549 breast
  GI50: 199 nM
  TGI: 2800 nM
NCI-H522 lung
  GI50: 182 nM
  TGI: 6820 nM
NCI/ADR-RES ovarian
  GI50: 962 nM
  TGI: > 51200 nM
MOLT-4 leukemia
  GI50: 594 nM
  TGI: 18100 nM
CAKI-1 renal
  GI50: 296 nM
  TGI: 13500 nM
SF-295 CNS
  GI50: 270 nM
  TGI: 1710 nM
MALME-3M melanoma
  GI50: 464 nM
  TGI: 11400 nM
RPMI-8226 leukemia
  GI50: 55.3 nM
  TGI: 4340 nM
HL-60(TB) leukemia
  GI50: 135 nM
  TGI: 1700 nM
EKVX NSCLC
  GI50: 367 nM
  TGI: > 58100 nM
OVCAR-3 ovarian
  GI50: 337 nM
  TGI: 6870 nM
NCI-H460 lung
  GI50: 262 nM
  TGI: 12900 nM
HCT-15 colon
  GI50: 347 nM
  TGI: 7220 nM

Reference: PubChem BioAssay (NCI)
